Source: the supplement of paper PMC5579334

Legend:
ST8814 [1] = experiment: relative IC50 (inflection point of fitted dose-response curve, CellTox-Green cytotoxicity, 72 h; top asymptote may be below 50%); higher = less potent
Method in brief: (§1)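 MPNST cell lines and primary human Schwann cells were incubated 72 h at 37 °C in 384-well plates holding five 10-fold compound dilutions. CellTox-Green was added before seeding at a final 1:1000 dilution and reported fluorescence from DNA released by disrupted cells. Signals were scaled to vehicle and positive-control wells, and cultures failing plate quality control were dropped. Drug sensitivity score and relative IC50 come from four-parameter logistic fits, with IC50 censored at the top concentration.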

S1507-2 [2] = experiment: as above
Method in brief: as §1

HS-PSS [3] = experiment: as above
Method in brief: as §1

HSC1 [4] = experiment: as above
Method in brief: as §1

ST8814 [5] = experiment: relative IC50 (inflection point of fitted dose-response curve, CellTiter-Glo viability, 72 h; top asymptote may be below 50% inhibition); higher = less potent
Method in brief: (§2)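 MPNST cell lines and primary human Schwann cells (750–1000 cells per well) went into 384-well plates preprinted with each compound at five concentrations in 10-fold steps. Plates were incubated 72 h at 37 °C, 5% CO2. Viability was read as CellTiter-Glo ATP luminescence, scaled between vehicle and positive-control wells, with duplicates averaged where present. Percent inhibition is at the top concentration; drug sensitivity score and relative IC50 (censored at top concentration) come from four-parameter logistic fits.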

S1507-2 [6] = experiment: as above
Method in brief: as §2

S462 = experiment: as above
Method in brief: as §2

HSC2 [7] = experiment: as above
Method in brief: as §2

STS26T [8] = experiment: as above
Method in brief: as §2

HS-PSS [9] = experiment: as above
Method in brief: as §2

YST-1 = experiment: as above
Method in brief: as §2

HS-Sch-2 = experiment: as above
Method in brief: as §2

HSC1 [10] = experiment: as above
Method in brief: as §2

HSC2 [11] = experiment: relative IC50 (inflection point of fitted dose-response curve, CellTox-Green cytotoxicity, 72 h; top asymptote may be below 50%); higher = less potent
Method in brief: as §1

STS26T [12] = experiment: as above
Method in brief: as §1

| SMILES | relative IC50 (ST8814 [1]) [nM] | relative IC50 (S1507-2 [2]) [nM] | relative IC50 (HS-PSS [3]) [nM] | relative IC50 (HSC1 [4]) [nM] | relative IC50 (ST8814 [5]) [nM] | relative IC50 (S1507-2 [6]) [nM] | relative IC50 (S462) [nM] | relative IC50 (HSC2 [7]) [nM] | relative IC50 (STS26T [8]) [nM] | relative IC50 (HS-PSS [9]) [nM] | relative IC50 (YST-1) [nM] | relative IC50 (HS-Sch-2) [nM] | relative IC50 (HSC1 [10]) [nM] | relative IC50 (HSC2 [11]) [nM] | relative IC50 (STS26T [12]) [nM] |
| --- | --- | --- | --- | --- | --- | --- | --- | --- | --- | --- | --- | --- | --- | --- | --- |
| CC(=O)Nc1cccc(-n2c(=O)n(C3CC3)c(=O)c3c(Nc4ccc(I)cc4F)n(C)c(=O)c(C)c32)c1 [Trametinib] | 46.3 | 45.8 | > 250 | > 250 | 16 | 15.2 | 9.9 | 18.5 | 7.59 | 28.1 | > 250 | 48.6 | 10.6 |  |  |
| c1ccc2c(CCNc3ccc(Nc4ccncc4)cc3)c[nH]c2c1 [Serdemetan] | 865 | 2810 | 3240 |  | 887 | 1620 | 1150 | 1350 | 2440 | 2710 | 876 | 3740 | 1370 | > 10000 | 3310 |
| CC[C@H](CC#N)OC(=O)N[C@@H](C)c1cccc(NC(=O)Nc2ccc(-c3cnco3)c(OC)c2)c1 [AVN944] | 886 | > 10000 | > 10000 | > 10000 | 614 | 500 | 320 | 93.4 | 398 | 309 | 317 | 640 | 108 | > 10000 |  |
| COc1ccc(-c2ccc3c(N4CCOC[C@@H]4C)nc(N4CCOC[C@@H]4C)nc3n2)cc1CO [AZD8055] |  | > 10000 |  | > 10000 | 138 | 51.1 | 24.8 | 28 | 69.5 | 91.7 | 20.5 | 83.3 | 29.9 | > 10000 | > 10000 |
| Cn1cncc1[C@@](N)(c1ccc(Cl)cc1)c1ccc2c(c1)c(-c1cccc(Cl)c1)cc(=O)n2C [Tipifarnib] |  | > 10000 | > 10000 |  | 366 | 97.5 | 510 | 585 | 351 | 683 | 175 | 1510 | 1350 | > 10000 | 342 |
| Nc1nccc(-c2c(-c3ccc(F)cc3)ncn2C2CCCCC2)n1 | > 10000 | > 10000 |  | > 10000 |  | > 10000 | > 10000 | > 10000 | > 10000 |  | 800 | 3780 | > 10000 | > 10000 |  |
| CN1CCN(CCOc2cc(OC3CCOCC3)c3c(Nc4c(Cl)ccc5c4OCO5)ncnc3c2)CC1 [Saracatinib] | 1550 | 99.5 |  | > 10000 | 1320 | 1530 | 818 | 1530 | 1110 | 1570 |  | 2810 | 452 | 8110 |  |
| CCN(CCO)CCCOc1ccc2c(Nc3cc(CC(=O)Nc4cccc(F)c4)[nH]n3)ncnc2c1 [AZD1152-HQPA] | 206 | > 1000 | > 1000 | > 1000 | 152 | 107 | 5.43 | 35.2 | 85.6 |  | 5.7 | > 1000 | 22.3 |  | 161 |
| Oc1ncc(N(CCCl)CCCl)c(O)n1 [Uracil mustard] | > 10000 | > 10000 |  | > 10000 |  | > 10000 | > 10000 | > 10000 | > 10000 |  |  |  | > 10000 | > 10000 | > 10000 |
| Cc1ccc(-c2cc(C(F)(F)F)nn2-c2ccc(S(N)(=O)=O)cc2)cc1 [Celecoxib] | > 10000 | > 10000 | > 10000 | > 10000 | > 10000 | > 10000 | > 10000 | > 10000 | > 10000 | > 10000 | > 10000 | > 10000 |  | > 10000 | > 10000 |
| O=C(NC[C@H](O)CO)c1ccncc1Nc1ccc(I)cc1F [Pimasertib] | 2060 | 2160 | > 10000 |  | 971 | 476 | 507 | 846 | 241 | 2390 | 3800 | 962 | 730 | > 10000 |  |
| CN(C)C[C@@H]1CCn2cc(c3ccccc32)C2=C(C(=O)NC2=O)c2cn(c3ccccc23)CCO1 [Ruboxistaurin] |  | 2960 | 3670 | 2060 | 1200 | 2170 | 2080 | 1970 | 2980 | 2890 | 1360 | 3420 | 3290 | 1880 | 2420 |
| Nc1ccccc1NC(=O)c1ccc(CNC(=O)OCc2cccnc2)cc1 [Entinostat] | 3640 | 3240 |  | > 10000 | 3700 | 2680 | 1500 | 2560 | 2740 | 3730 | 1240 | 3410 | 2340 | > 10000 |  |
| COc1cc(OC2CCN(C)CC2)ccc1Nc1ncc2c(n1)n(C1CCCC1)c(=O)n2C [AZ 3146] | 2960 | 3510 | 3140 | > 10000 | 2580 | 2690 | 964 | 3340 | 1250 | 1850 | 1480 | 1670 | 3380 |  | 1950 |
| Cc1ccc(NC(=O)c2ccc(CN3CCN(C)CC3)cc2)cc1Nc1nc(-c2cccnc2)cs1 [Masitinib] | 3220 | 3510 | 3850 | 3820 | 3230 | 2060 | 3300 | 2600 | 3370 | 1830 | 2330 | 3270 | 3400 |  | 3340 |
| CCCCCOC(=O)Nc1nc(=O)n([C@@H]2O[C@H](C)[C@@H](O)[C@H]2O)cc1F [Capecitabine] | > 10000 | > 10000 | > 10000 | > 10000 | > 10000 | > 10000 | > 10000 | > 10000 |  | > 10000 | > 10000 | > 10000 | > 10000 | > 10000 | > 10000 |
| Cc1cn(-c2cc(NC(=O)c3ccc(C)c(Nc4nccc(-c5cccnc5)n4)c3)cc(C(F)(F)F)c2)cn1 [Nilotinib] | > 10000 | > 10000 | > 10000 | > 10000 | > 10000 | > 10000 | > 10000 | > 10000 | > 10000 |  |  |  | > 10000 |  | > 10000 |
| COc1cc2c(NC3CCN(C(C)C)CC3)nc(N3CCC(F)(F)CC3)nc2cc1OCCCN1CCCC1 [UNC0642] | 3020 | 2900 | 2960 | > 10000 | 2970 | 1940 | 2690 | > 10000 | 3060 | 2600 | 3190 | 2880 |  | > 10000 | 2910 |
| CS(=O)(=O)CCNCc1ccc(-c2ccc3ncnc(Nc4ccc(OCc5cccc(F)c5)c(Cl)c4)c3c2)o1 [Lapatinib] | > 1000 | > 1000 | > 1000 | > 1000 | > 1000 | > 1000 | > 1000 | > 1000 |  | > 1000 |  | > 1000 | > 1000 | > 1000 | > 1000 |
| Cc1cc2c(C(C)C)c(O)c(O)c(C=O)c2c(O)c1-c1c(C)cc2c(C(C)C)c(O)c(O)c(C=O)c2c1O [AT 101] |  | > 100000 | 30300 | 10700 | 7150 | 16300 | 3790 | 1740 | 8980 | 15300 | 5300 | 5350 | 3720 | > 100000 | > 100000 |
| COc1cc(O)c2c(c1)/C=C/C[C@H](O)[C@H](O)C(=O)/C=C\C[C@H](C)OC2=O [(5Z)-7-Oxozeaenol] |  | 3520 | > 10000 |  | 1330 | 2450 | 1660 | 1320 | 1360 | 3820 | 2020 | 2790 | 1690 | 3900 | 3070 |
| Cc1c(Cn2c(C)nc3c(C(=O)O)cc(N4CCOCC4)cc32)cccc1C(F)(F)F | > 10000 | > 10000 | > 10000 | > 10000 |  | 931 | > 10000 | > 10000 |  |  | > 10000 | > 10000 | > 10000 | > 10000 | > 10000 |
| COc1cccc2c1C(=O)c1c(O)c3c(c(O)c1C2=O)C[C@@](O)(C(C)=O)C[C@@H]3O[C@H]1C[C@H](N)[C@H](O)[C@H](C)O1 [Daunorubicin] |  | > 1000 | > 1000 | 366 | 101 | 146 | 49.3 | 72.5 | 71.6 | 122 | 27 | 117 | 120 | 344 |  |
| CS(=O)(=O)c1ccc(C(=O)Nc2ccc(Cl)c(-c3ccccn3)c2)c(Cl)c1 [Vismodegib] | > 10000 | > 10000 | > 10000 |  | > 10000 | > 10000 | > 10000 | > 10000 | > 10000 |  |  |  | > 10000 | > 10000 | > 10000 |
| O=C(Nc1ccc2[nH]nc(-c3ccncc3)c2c1)[C@@H]1CCN(CC(=O)N2CCN(c3ccc(-c4ncccn4)cc3)CC2)C1 | 675 | 1950 | > 10000 | > 10000 | 234 | 568 | 137 | 159 | 822 | 677 | 2270 | 773 | 263 |  |  |
| COc1cc(F)c(F)c(Nc2ccc(I)cc2F)c1NS(=O)(=O)C1(C[C@H](O)CO)CC1 [Refametinib] | 1600 | 1860 | 3270 | > 10000 | 451 | 362 | 382 | 443 | 306 | 1800 |  | 1620 | 849 |  |  |
| C=CCc1cccc(/C=N/NC(=O)CN2CCN(Cc3ccccc3)CC2)c1O [PAC-1] |  | > 10000 | 2020 | > 10000 | 2920 | 3660 | 3490 | 1370 | 2530 | 2320 | 2430 | 1130 | 1890 | > 10000 | > 10000 |
| CC1(C)NC(=O)N(c2ccc([N+](=O)[O-])c(C(F)(F)F)c2)C1=O [Nilutamide] | > 10000 | > 10000 | > 10000 | > 10000 | > 10000 | > 10000 | > 10000 | > 10000 | > 10000 |  | > 10000 |  |  | > 10000 | > 10000 |
